One data set concerns the target T1, human mGluR2 receptor (Homo sapiens, UniProt Q14416).
T1 construct: expressed in transfected cells; stably expresses human mGluR2, co-transfected with rat EAAT1 and Galpha15
The data set is described as follows: Functional in vitro activity at human mGluR2 receptor (FLIPR calcium response, potentiator mode). The format is cell-based. To be noted: relative EC50; potentiation of glutamate EC10 response; cells expressing human mGluR2, rat EAAT 1 and Gα15.

Data set [1] has as its system Male Holtzman Sprague-Dawley rats. Kind of data set: Positive differential reinforcement in rats (DRL-72 second schedule). The format is in vivo, rat. To be noted: reinforced responses divided by total responses, 10 mg/kg, IP, dose 0 group 0.25. An excerpt: The differential reinforcement of low rates-72 second (DRL-72) schedule has been extensively used as a screen for clinically effective antidepressant agents including imipramine, fluoxetine, paroxetine and others (Sokolowski J D, Seiden L S. 1999. The behavioral effects of sertraline, fluoxetine, and paroxetine differ on the differential-reinforcement-of-low-rate 72-second operant schedule in the rat. Psychopharm (Berl). 147(2): 153-61). […] As such, compounds which show positive result in differential reinforcement in animals are believed to be useful in treating depression in humans.
Male Holtzman Sprague-Dawley rats are water restricted (water available 20′ per day following the test session) and trained to lever press for a 4″ access to 0.025 ml of water for each correct response during daily 60 minute sessions. All testing takes place on weekdays only. After successful lever press training, rats are then required to respond under a DRL-24 second schedule, where only lever presses that are separated by 24 seconds are reinforced. Upon stable responding on a DRL-24 second schedule, rats are trained on a DRL-72 second schedule until responding stabilizes at approximately 15% efficiency. […] Response efficiency is recorded as number of reinforced responses divided by total number of responses. […]

The test system of the next data set is Male Fischer F-344 rats. The data set is described as follows: Attenuation of stress-induced hyperthermia in rats. Conditions: p.o., 4 hr pretreatment. The format is in vivo, rat. The source says:
In many anxiety disorders, hyperthermia occurs as part of the pathology and is considered a symptom of the disease. Compounds which attenuate stress-induced hyperthermia in animals are believed to be useful in treating anxiety disorders in humans.
The conventional and minimally-invasive method for analyzing stress-induced hyperthermia is by measuring body temperature, and stress-induced increases in body temperature, via rectal thermometer. Male Fischer F-344 rats (Harlan, Indianapolis, Ind., USA) weighing between 275-350 g are tested. All animals are individually-housed with food and automated water available ad libitum, and maintained on a 12 h light/dark cycle (lights on at 06:00). Animals are fasted for approximately 12-18 hours before the experiment, which is conducted during the light phase. […]
After the pretreatment period, rats are taken individually to a brightly lit adjacent room where baseline body temperatures are determined by insertion of a rectal probe lubricated with mineral oil. Body temperature is assessed using a PHYSITEMP BAT-12® Microprobe Thermometer with a PHYSITEMP RET-2® rat rectal probe (Physitemp Instruments Inc., Clifton, N.J., USA). […] Ten minutes later a second body temperature measurement is recorded (T2). […]

pEC50: −log10 of the molar value.

One may read the pEC50 as −log10 of the EC50, conventionally taken in molar units. By melting point is commonly meant the temperature of the solid-liquid transition.

T1 sequence (Q14416 19-872): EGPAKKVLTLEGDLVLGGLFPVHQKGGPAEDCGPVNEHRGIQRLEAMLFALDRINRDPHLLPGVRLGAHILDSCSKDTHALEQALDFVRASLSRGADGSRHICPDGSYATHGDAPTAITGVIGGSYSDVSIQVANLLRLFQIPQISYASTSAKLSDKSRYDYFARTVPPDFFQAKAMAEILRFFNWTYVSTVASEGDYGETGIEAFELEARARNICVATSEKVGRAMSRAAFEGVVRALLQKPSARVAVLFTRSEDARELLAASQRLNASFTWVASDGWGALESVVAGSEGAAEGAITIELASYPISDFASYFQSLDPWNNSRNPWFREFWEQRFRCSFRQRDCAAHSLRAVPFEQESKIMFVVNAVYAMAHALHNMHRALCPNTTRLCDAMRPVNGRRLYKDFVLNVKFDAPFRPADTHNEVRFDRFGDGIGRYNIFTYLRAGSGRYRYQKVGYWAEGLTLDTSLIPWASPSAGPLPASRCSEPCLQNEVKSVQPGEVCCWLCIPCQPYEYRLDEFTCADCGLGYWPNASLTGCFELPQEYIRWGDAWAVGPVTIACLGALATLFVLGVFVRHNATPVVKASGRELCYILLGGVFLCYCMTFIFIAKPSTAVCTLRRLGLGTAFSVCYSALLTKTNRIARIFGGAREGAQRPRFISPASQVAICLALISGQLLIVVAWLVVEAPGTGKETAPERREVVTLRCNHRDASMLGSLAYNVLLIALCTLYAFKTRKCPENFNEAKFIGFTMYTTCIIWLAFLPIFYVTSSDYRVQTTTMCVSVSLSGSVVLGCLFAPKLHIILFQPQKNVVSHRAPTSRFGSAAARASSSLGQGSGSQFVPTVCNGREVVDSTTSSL
From the text for human mGluR2 receptor: Functional in vitro activity at human mGluR2 receptor Cell lines stably expressing the human mGluR2 receptor (see for example Desai, Burnett, Mayne, Schoepp, Mol. Pharmacol. 48, 648-657, 1995) co-transfected with the rat glutamate transporter EAAT 1 (Excitatory Amino Acid Transporter 1) and the Gα15 subunit were used for these studies. The expression of Gα15 allows this Gi-coupled receptors to couple to phospholipase C, resulting in the ability to measure receptor activation by a fluorometric calcium response assay. […]
Intracellular calcium levels were monitored before and after the addition of compounds using a Fluorometric Imaging Plate Reader (FLIPR, Molecular Devices, Union City, Calif. USA). […] The results were analyzed (GraphPad® Prism v4, Graphpad Software, LaJolla, Calif., USA) to calculate the concentrations of glutamate needed to induce the EC10 responses.
Compounds were tested in a two-addition FLIPR assay using a 10-point concentration response profile starting at a final concentration of 25 μM (agonist mode) or 12.5 μM (potentiator mode). […] After taking an initial fluorescent read of the cell plate for 5 seconds, compound was added to the cell plate (50 uL per well). […]
The maximal response was defined as that induced by ECmax (100 μM glutamate). […] Agonist effects were quantified as percent stimulation induced by compound alone relative to the maximal glutamate response. […]

Molecule `CC(C)C(=O)c1ccc(OCc2ccc(CNC(=O)c3cn(C)cn3)cc2)c(C(F)(F)F)c1O` [Example 1, 1-Methyl-1H-imidazole-4-carboxylic acid 4-(3-hydroxy-4-isobutyryl-2-trifluoromethyl-phenoxymethyl)-benzylamide] registered a melting point of 164.7 °C. The pEC50 at human mGluR2 receptor is 7.65. In data set [1], the “Response Efficiency” value came to 0.56. The “T35 dose (dose producing a 35% reduction in stress-induced hyperthermic response relative to vehicle)” value in the data set on Male Fischer F-344 rats stood at 3.2 mg/kg.
